Assay results from publication PMC8741257, “Identification of novel non-toxic and anti-angiogenic α-fluorinated chalcones as potent colchicine binding site inhibitors” (Journal of Enzyme Inhibition and Medicinal Chemistry, 2022).

Experiments:
[1] = tested on: MGC-803 cells; experiment: Transwell cell invasion assay; format: cell-based, human; conditions: compared with control group
Method: Metastasis is one of the leading causes of morbidity and mortality of cancer patients. Microtubules-targeting inhibitors have also been reported to interfere with cell migration and invasion. Accordingly, the in vitro would healing assay and Transwell assays were performed to investigate the inhibitory effect of compound 4c on the migration and invasion of MGC-803 cells. As shown Figure 8(A,C), the scratches healing rate in the control group was approximately 64%. By contrast, the cells treated with 4c have much smaller scratched areas recovery at all concentrations. […] Cell invasion is an important malignant behaviour during cancer metastasis. In Tanswell assay, MGC-803 cells were seeded into upper chambers with pre-coated Matrigel stimulating base membrane in order to assess the cellular invasion.
Matrix gel was thawed overnight at 4 °C. […] Transwell was placed into a 24-well plate, 35% acetic acid (300 μL) was added to the upper chamber of the chamber, and after acetic acid completely entered the lower chamber, 100 μL of acetic acid from the lower chamber was aspirated into a 96-well plate, and three replicate wells of each concentration were shaken for 10 min, and the absorbance was measured at 560 nm with an enzyme marker.

[2] = tested on: MMP of MGC-803 cells; experiment: Mitochondrial membrane potential (JC-1, flow cytometry); format: cell-based, human; conditions: 72 nM, 48 h
Method: There is a close relationship between mitochondria and apoptosis, and a decrease in mitochondrial membrane potential is one of the irreversible events that occur early in apoptosis cells. Therefore, effect of compound 4c on MMP of MGC-803 cells was examined by cationic JC-1 staining method and flow cytometry.
The cultured cells were spread in 6-well plates with about 1.5 × 10^5 cells per well and incubated overnight at 37 °C. Different concentrations of the 4c were added to the wells, and the incubation was continued for 48 h. The wells were washed twice with JC-1 staining buffer (1×) after resuspension with an appropriate amount of JC-1 staining buffer (1×), flow cytometry assays were performed according to standard procedures

[3] = tested on: HUVECs; experiment: Tube formation assay on Matrigel; format: cell-based, human; conditions: 2.5 µM
Method: The formation of HUVEC tube represents the key steps in angiogenesis. Thus, we further tested the anti-vascular activity of 4c by performing a tube formation assay. As shown in Figure 10 HUVECs in the control group formed integrated tubules with multicentric junctions on the Matrigel matrix, while the tubes were fragmentary after exposure to 4c.
The matrix gel was thawed overnight at 4 °C and then added to 96 well plates. After incubated at 37 °C for 45 min, the matrix gel was solidified. Different concentrations of 4c were added to each well at the density of HUVECs was 1 × 10^5/well. After incubated at 37 °C for 6–8 h, the formation of tubules was observed under microscope

[4] = tested on: microtubule network of MGC-803 cells; experiment: Immunofluorescent staining of the cellular microtubule network; format: cell-based, human; conditions: 18, 36, and 72 nM
Method: Since tubulin-microtubule system plays a crucial role in mechanical solidity, cell motility and mitosis, an immunofluorescent staining assay was further carried out in MGC-803 cells to evaluate the inhibitory effects of 4c on microtubule cytoskeleton. […] Upon treatment with higher concentrations of 4c, the dispersed tubulin dimers were even more obvious and there is no tubular structure left.
MGC-803 cells (3 × 10^4 cells/well) were seeded into 6 well-plates and then treated with vehicle control 0.1% DMSO and 4c (18, 36, 72nΜ). The cells were rinsed twice with PBS and fixed by 4% paraformaldehyde for 20 min. Subsequently, microtubule detection was performed using a fluorescent antibody against α-tubulin in 5% BSA and incubated for 5 ∼ 6 h at room temperature. To stain cell nucleus, crystals were incubated with Hoechst for 10 min. After washing with PBST to remove redundant stain, the samples were visualised under an Olympus laser scanning confocal microscope.

[5] = tested on: U937 (human leukaemia cells); experiment: Antiproliferative activity (CCK-8 assay); format: cell-based; conditions: U-937, mean ± SD, three separated experiments, 72 h
Method: (§1) MCF-7, MGC-803, Hela and HepG-2 cell lines were cultured in a base medium (90% DMEM and 10% FBS), A549 and U937 were cultured in a base medium (90% PRMI-1640 and 10% FBS) at 37 °C, 5% CO2 and a saturated humidity atmosphere. All the mediums were supplemented with 10% FBS and 1% […]/streptomycin (all cells were purchased from Shanghai Institutes for Biological Sciences, Chinese Academy of Sciences, Shanghai, China).
(§2) MGC-803 cells were collected and seeded into 96 well plates at a density of 8000/well. The mediums containing drugs and cell suspension were added into the well. The cells were incubated in 5% CO2 incubator at 37 °C for 72 h. Each well was added 10 µL CCK8 solution, and the incubation time was 3–4 h. The absorbance value at 450 nm was measured by microplate reader. Data are calculated with GraphPad Prism5 software.

[6] = tested on: Tg(flk1: EGFP) zebrafish embryos; experiment: Zebrafish angiogenesis assay; format: in vivo
Method: Since zebrafish embryos emerged as a powerful model for studying human diseases, the transgenic zebrafish with green fluorescent protein (GFP) labelled endothelial cells have been used extensively for testing angiogenesis in vivo. In this work, an anti-angiogenetic activity of 4c was confirmed by Tg(flk1: EGFP) zebrafish embryos in vivo assay. Fluorescently labelled 3hpf period embryos were treated with different doses of 4c and incubated at 28.5 °C. Until 30hpf, zebrafish was imaged under a fluorescent microscopy to observe the affection of applied agents on intersegmental vessels (ISVs) development. As shown in the Figure 11, ISVs were clearly observed in newly born zebrafish embryos of solvent-treated control group, which were growing at regular longitudinal and equidistant intervals.
The transgenic flk: enhanced GFP zebrafish embryos were transferred into 6-well plates (n = 30 per well) with 1 ml of aquaculture water (0.2 g/L of Instant Ocean Salt in distilled water) and raised at 28 °C. Then the embryos dechorionated at 12 h post fertilisation (hpf) was treated with the indicated concentrations of 4c or vehicle (DMSO). About 30 embryos were screened for each concentration gradient. At 30hpf, the zebrafish embryos were stripped, anaesthetised, and fixed with agarose gel. The images were taken under the microscope, and the number of blood vessels between the segments was recorded. Results were obtained from three independent determinations and presented as mean ± SD.

[7] = tested on: MGC-803 (human gastric cancer cells); experiment: Antiproliferative activity (SRB / CCK-8 assay); format: cell-based; conditions: mean ± SD
Method: as §1
A549, MGC-803, MCF-7, HepG2 and Hela cells were seeded at the appropriate cell line density (3 × 10^3 to 4 × 10^3 cells/well). The cells were then incubated at 37 °C for 24 h in a humidified 5%CO2 in 96-well plates prior to experiments. After a further 72 h of incubation, cell proliferation was quantified with SRB ([…]) to determine the number of surviving cells. The absorbance at 560 nm was measured by microplate. The experiment was repeated three times, and the data were listed in the form of mean and standard deviation.
as §2

IC50 [5]: 25 ± 1 nM
IC50 ([7]; Table 2, triplicate): 57 ± 6 nM
IC50 ([7]; three separated experiments, 72 h): 57.1 ± 6 nM
Compound: COc1cc(C(=O)/C(F)=C/c2c[nH]c3cc(Br)ccc23)cc(OC)c1OC [4c, (Z)-3–(6-bromo-1H-indol-3-yl)-2-fluoro-1–(3,4,5-trimethoxyphenyl)prop-2-en-1-one]
invasion ability (Transwell, Matrigel) [1]: significant reduced invasion ability
JC-1 green fluorescence intensity (lower gate) ([2]; control 7.13): 55.6%
JC-1 red fluorescence intensity (upper gate) ([2]; control 92.4): 41.3%
HUVEC cord formation, tube area and length [3]: dramatically suppressed
Effect on cellular microtubule network [4]: remarkable disruption of microtubule reticular network
embryo development and blood vessels ([6]; dose ≥ 5 µM): marked delay in development and only scattered or fragmentary blood vessels were observed
lowest dose with anti-angiogenic phenotype ([6]; imaged at 30hpf): 2.5 µM
number and length of intersegmental vessels (ISVs) ([6]; imaged at 30hpf, different doses): all dose-dependently reduced
